Reference: patent US8563557B2, “Pyrimidine derivatives and their pharmaceutical use” (University Court of the University of Dundee, priority 2008, dated 2013)
Entries after “also recorded” stand apart in the source; their conditions may differ.

Legend:
[1] = biological target: T1, SIRT1 (Homo sapiens, UniProt Q96EB6); assay: In vitro inhibition of SIRT1 by cambinol analogs; settings: for Inhibition at 60 μM ± SE (%) SIRT1: in duplicate, ± standard error (n = 2); for activity against SIRT1 in words: compared with cambinol (1)
T1 sequence (Q96EB6 1-747): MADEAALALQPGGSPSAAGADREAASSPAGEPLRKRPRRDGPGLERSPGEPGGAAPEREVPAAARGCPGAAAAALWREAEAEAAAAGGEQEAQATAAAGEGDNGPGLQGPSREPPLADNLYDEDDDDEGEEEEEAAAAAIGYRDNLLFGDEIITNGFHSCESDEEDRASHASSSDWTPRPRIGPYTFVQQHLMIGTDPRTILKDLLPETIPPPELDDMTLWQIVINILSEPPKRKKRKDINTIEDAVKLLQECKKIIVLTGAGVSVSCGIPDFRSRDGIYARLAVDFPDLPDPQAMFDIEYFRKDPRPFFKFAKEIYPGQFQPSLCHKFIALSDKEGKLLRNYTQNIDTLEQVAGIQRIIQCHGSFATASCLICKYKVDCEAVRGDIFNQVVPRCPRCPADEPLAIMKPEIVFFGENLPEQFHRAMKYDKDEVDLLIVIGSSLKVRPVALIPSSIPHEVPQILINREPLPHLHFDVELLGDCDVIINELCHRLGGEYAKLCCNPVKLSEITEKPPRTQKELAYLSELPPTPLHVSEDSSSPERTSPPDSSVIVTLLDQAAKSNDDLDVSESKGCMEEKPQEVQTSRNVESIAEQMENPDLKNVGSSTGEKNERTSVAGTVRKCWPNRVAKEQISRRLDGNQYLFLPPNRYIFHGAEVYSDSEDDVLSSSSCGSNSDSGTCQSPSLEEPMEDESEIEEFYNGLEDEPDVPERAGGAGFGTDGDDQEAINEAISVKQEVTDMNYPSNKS

[2] = biological target: T2, SIRT2 (Homo sapiens, UniProt Q8IXJ6); assay: In vitro inhibition of SIRT2 by cambinol analogs; settings: for Inhibition at 60 μM ± SE (%) SIRT2: in duplicate, ± standard error (n = 2); for activity against SIRT2 in words: compared with cambinol (1); for inhibition at 60 µM: read-out: Inhibition at 60 μM ± SE (%) SIRT2
T2 sequence (Q8IXJ6 1-389): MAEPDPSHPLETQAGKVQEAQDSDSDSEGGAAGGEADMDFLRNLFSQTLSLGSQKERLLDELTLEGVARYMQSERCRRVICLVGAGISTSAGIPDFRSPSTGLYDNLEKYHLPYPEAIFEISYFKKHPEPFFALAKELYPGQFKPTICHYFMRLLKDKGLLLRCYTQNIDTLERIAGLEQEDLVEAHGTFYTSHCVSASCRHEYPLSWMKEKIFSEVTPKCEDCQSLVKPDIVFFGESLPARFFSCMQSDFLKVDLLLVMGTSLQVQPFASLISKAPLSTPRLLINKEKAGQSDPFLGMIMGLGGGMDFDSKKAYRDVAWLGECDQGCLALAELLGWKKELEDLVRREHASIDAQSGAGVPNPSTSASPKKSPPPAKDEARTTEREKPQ

SMILES	Inhibition at 60 μM ± SE (%) SIRT1 [1] [%]	activity against SIRT1 in words [1]	Inhibition at 60 μM ± SE (%) SIRT2 [2] [%]	activity against SIRT2 in words [2]	inhibition at 60 µM [2] [%]	melting point [°C]	inhibition at 60 µM ([1]; read-out: Inhibition at 60 μM ± SE (%) SIRT1) [%]	IC50 ([2]; read-out: IC50 SIRT2, repeated at least two times) [µM]
O=c1[nH]c(=S)[nH]c(-c2ccc(Cl)cc2)c1Cc1c(O)ccc2ccccc12 [Compound 6iv, 6-(4′-Chloro-phenyl)-5-(2″-hydroxy-naphthalen-1-ylmethyl)-2-thioxo-2,3-dihydro-1H-pyrimidin-4-one]	13.7 ± 1	significant decrease in activity	20.1 ± 1	significant decrease in activity				
O=c1[nH]c(-c2ccccc2)c(Cc2c(O)ccc3ccccc23)c(=O)[nH]1 [Compound 6a, 5-(2-Hydroxy-naphthalen-1-ylmethyl)-6-phenyl-1H-pyrimidine-2,4-dione]				significantly reduced activity	6.5 ± 4			
CCCCn1c(-c2ccccc2)c(Cc2c(O)ccc3ccccc23)c(=O)[nH]c1=S [Compound 6j, 1-butyl-5-((2″-hydroxynaphthalen-1-yl)methyl)-6-phenyl-2-thioxo-2,3-dihydropyrimidin-4(1H)-one]					97.6 ± 1	201 to 203		
O=c1[nH]c(=S)[nH]c(-c2ccc(C(F)(F)F)cc2)c1Cc1c(O)ccc2ccccc12 [Compound 6vi, 5-(2″-Hydroxy-naphthalen-1-ylmethyl)-2-thioxo-6-(4′-trifluoromethyl-phenyl)-2,3-dihydro-1H-pyrimidin-4-one]	15.1 ± 1	significant decrease in activity	6.7 ± 1	significant decrease in activity				
COc1ccc(-c2[nH]c(=S)[nH]c(=O)c2Cc2c(O)ccc3ccccc23)cc1 [Compound 6c, 5-(2-Hydroxy-naphthalen-1-ylmethyl)-6-(4-methoxy-phenyl)-2-thioxo-2,3-dihydro-1H-pyrimidin-4-one]				loss of activity	9.2 ± 2	262 to 265		
O=c1[nH]c(=S)[nH]c(-c2ccc(I)cc2)c1Cc1c(O)ccc2ccccc12 [Compound 6v, 5-((2″-hydroxynaphthalen-1-yl)methyl)-6-(4′-iodophenyl)-2-thioxo-2,3-dihydropyrimidin-4(1H)-one]		significant decrease in activity		significant decrease in activity; also recorded: relative lack of activity	7.7 ± 1		7.7 ± 1	
O=c1[nH]c(=S)[nH]c(-c2ccccc2Br)c1Cc1c(O)ccc2ccccc12 [Compound 6vii, 6-(2′-Bromo-phenyl)-5-(2″-hydroxy-naphthalen-1-ylmethyl)-2-thioxo-2,3-dihydro-1H-pyrimidin-4-one]	19.7 ± 1	SIRT1 activity was lost						
O=c1[nH]c(=S)[nH]c(-c2cccc(Cl)c2)c1Cc1c(O)ccc2ccccc12 [Compound 6ix, 6-(3′-Chloro-phenyl)-5-(2″-hydroxy-naphthalen-1-ylmethyl)-2-thioxo-2,3-dihydro-1H-pyrimidin-4-one]	11.3 ± 1	reduced activity	7.6 ± 6	reduced activity				
Cn1c(-c2ccccc2)c(Cc2c(O)ccc3ccccc23)c(=O)[nH]c1=S [Compound 6e, 5-(2-Hydroxy-naphthalen-1-ylmethyl)-1-methyl-6-phenyl-2-thioxo-2,3-dihydro-1H-pyrimidin-4-one]					80.4 ± 1	254 to 257		20.1 ± 5
O=c1[nH]c(=S)[nH]c(-c2cccc(Br)c2)c1Cc1c(O)ccc2ccccc12 [Compound 6viii, 6-(3′-Bromo-phenyl)-5-(2″-hydroxy-naphthalen-1-ylmethyl)-2-thioxo-2,3-dihydro-1H-pyrimidin-4-one]	4.8 ± 1	SIRT1 activity was lost	6.6 ± 3					
